# Laboratory results as given in patent publication EP0376166A1, “Condensed quinoline system compound and process of preparation thereof” (MECT CORPORATION, priority 1988, dated 1990).
# What was measured:
# [1] = system: P-388; test: Prolongation of life span in P-388 implanted mice; type: in vivo, CDF mouse; details: for cure: cured mice per group of 6; for response vs control in vivo at 3.12 mg/kg: dosage 3.12 mg/kg; for response vs control in vivo at 6.25 mg/kg: dosage 6.25 mg/kg
# Method: Animal used: CDF mouse (6 mice/group) Tumor: P-388 Number of implanted cells: 10⁶ cells/mouse Implanted site: i.p. Day of administration: Day 1 and Day 5 Dosage: LD₅₀ or 400 mg/kg/day at the maximum
# [2] = system: KB Cell; test: Inhibition of multiplication (growth) of KB cells, in vitro; type: cell-based, human; details: concentration for 50% growth inhibition vs control; for IC50: Homo sapiens, 72 h, compound added Day 1, cells counted Day 4, read-out: Conc.(ED50)
# Method: KB cells, carcinomatous cell tumors, were transferred to in vitro floatation incubator systems, and added respectively with compounds of Examples 1 to 33. The results of cultivation added with these compounds were compared with the results of the control which was not added with any compound.
# Cell used: KB Cell (Originating from human mouth epidermal cancer) Culture medium: Eagles minimal essential medium (MEM) supplemented with 10% calf serum Cultivation: 37°C carbon dioxide gas incubator (5% CO₂)
# Day 0: KB cells were diluted in the culture medium to adjust the KB cell density to 2 x 10⁴/ml. Three ml of the cell suspension was inoculated in each of 60 mm plastic dishes. Two dishes per standard dosage were used. Day 1: Test compound was added to the medium so that the final concentrations were set to 100, 30, 10, 3 and 1 µg/ml. Day 4: Cells were scraped off from the dish using trypsin, and the cell number was countered using a Corter counter.
# In generally accordance with the stipulations set forth by the National Cancer Institute (NCI), U.S.A., the concentration of compound necessary for exerting 50% growth inhibition (ED₅₀) compared to the control was determined. A compound was judged as effective when ED₅₀ was less than 4 µg/ml.
# [3] = P388, ip, T/C %, dosage 50 mg/kg, Day 1 and Day 5, P-388 10⁶ cells/mouse i.p., read-out: Ratio of Life Prolongation (%)
# [4] = P388, ip, T/C %, dosage 100 mg/kg, Day 1 and Day 5, P-388 10⁶ cells/mouse i.p., read-out: Ratio of Life Prolongation (%)
# [5] = P388, ip, T/C %, dosage 200 mg/kg, Day 1 and Day 5, P-388 10⁶ cells/mouse i.p., read-out: Ratio of Life Prolongation (%)
# [6] = P388, ip, T/C %, dosage 400 mg/kg, Day 1 and Day 5, P-388 10⁶ cells/mouse i.p., read-out: Ratio of Life Prolongation (%)
# [7] = P388, ip, T/C %, dosage 12.5 mg/kg, Day 1 and Day 5, P-388 10⁶ cells/mouse i.p., read-out: Ratio of Life Prolongation (%)
# [8] = P388, ip, T/C %, dosage 25 mg/kg, Day 1 and Day 5, P-388 10⁶ cells/mouse i.p., read-out: Ratio of Life Prolongation (%)
# [9] = P388, ip, T/C %, Day 1 and Day 5, P-388 10⁶ cells/mouse i.p., read-out: Ratio of Life Prolongation (%)
Molecule,"response vs control in vivo at 50 mg/kg [1, 3]","response vs control in vivo at 100 mg/kg [1, 4]","response vs control in vivo at 200 mg/kg [1, 5]",IC50 [2],"response vs control in vivo at 12.5 mg/kg [1, 7]","response vs control in vivo at 25 mg/kg [1, 8]",also measured
"6-(4-methanesulfonamide-anilino)-indeno[3,2-b]quinoline [Compound 5]",,,,,,,"Ratio of Life Prolongation (%) ([1]; T/C %, dosage 25 mg/kg, Day 1 and Day 5, P-388 10⁶ cells/mouse i.p.): 140%; Ratio of Life Prolongation (%) ([1]; T/C %, dosage 50 mg/kg, Day 1 and Day 5, P-388 10⁶ cells/mouse i.p.): 135%; Ratio of Life Prolongation (%) ([1]; T/C %, dosage 100 mg/kg, Day 1 and Day 5, P-388 10⁶ cells/mouse i.p.): 163%; Ratio of Life Prolongation (%) ([1]; T/C %, dosage 200 mg/kg, Day 1 and Day 5, P-388 10⁶ cells/mouse i.p.): 172%; Ratio of Life Prolongation (%) ([1]; T/C %, dosage 400 mg/kg, Day 1 and Day 5, P-388 10⁶ cells/mouse i.p.): 165%; Conc.(ED50) ([2]; compound added Day 1, cells counted Day 4, 4320 min): < 0.3 mg/L"
"COc1cc(NS(C)(=O)=O)ccc1Nc1c2c(nc3c(C)cccc13)-c1c(C)cccc1C2 [Compound 1, 6-4-(methanesulfonamide-2-methoxyanilino)-1,10-dimethylindeno[3,2-b]quinoline]",210%,290%,240%,< 0.3 mg/L,,,cure ([1]; dosage 100 mg/kg): 1/6; cure ([1]; dosage 200 mg/kg): 1/6
COc1cc(NS(C)(=O)=O)ccc1Nc1c2c(nc3c(C)cccc13)-c1ccccc1C2 [Compound 2],,257%,99%,< 0.3 mg/L,,,"response vs control in vivo at 400 mg/kg [1, 6]: 97%; cure ([1]; dosage 100 mg/kg): 1/6"
COC(=O)Nc1ccc(Nc2c3c(nc4ccccc24)-c2ccccc2C3)c(OC)c1 [Compound 3],,151%,97%,< 0.3 mg/L,,,"response vs control in vivo at 400 mg/kg [1, 6]: 0%"
COc1cc(N)ccc1Nc1c2c(nc3ccccc13)-c1ccccc1C2 [Compound 4],210%,,,< 0.3 mg/L,134%,168%,
"CN(C)c1cc(NS(C)(=O)=O)ccc1Nc1c2c(nc3ccccc13)-c1ccccc1C2 [Compound 6, 6-(4-methanesulfonamide-2-dimethylaminoanilino)-indeno[3,2-b]quinoline]",,169%,247%,< 0.3 mg/L,,,"response vs control in vivo at 400 mg/kg [1, 6]: 148%; cure ([1]; dosage 200 mg/kg): 2/6"
COc1cc(NCS(=O)O)ccc1Nc1c2c(nc3ccccc13)-c1ccccc1C2 [Compound 7],111%,108%,111%,< 0.3 mg/L,,,
COc1cc(NCC(=O)O)ccc1Nc1c2c(nc3ccccc13)-c1ccccc1C2 [Compound 8],,175%,178%,< 0.3 mg/L,,,"response vs control in vivo at 400 mg/kg [1, 6]: 155%"
COc1cc(NS(C)(=O)=O)ccc1Nc1c2cccc(C)c2nc2c1[nH]c1ccccc12 [Compound 9],305%,,,< 0.3 mg/L,198%,235%,"response vs control in vivo at 1.56 mg/kg ([1]; P388, ip, T/C %, dosage 1.56 mg/kg, Day 1 and Day 5, P-388 10⁶ cells/mouse i.p., read-out: Ratio of Life Prolongation (%)): 131%; response vs control in vivo at 3.12 mg/kg [1, 9]: 165%; response vs control in vivo at 6.25 mg/kg [1, 9]: 168%; cure ([1]; dosage 25 mg/kg): 1/6; cure ([1]; dosage 50 mg/kg): 4/6"
"COc1cc(NS(C)(=O)=O)ccc1Nc1c2cccc(C)c2nc2c1[nH]c1cccc(C)c12 [Compound 10, 6-(4-methanesulfonamide-2-methoxyanilino)-1,10-dimethylindolo[3,2-b]quinoline]",223%,260%,,< 0.3 mg/L,165%,203%,"response vs control in vivo at 3.12 mg/kg [1, 9]: 109%; response vs control in vivo at 6.25 mg/kg [1, 9]: 145%; cure ([1]; dosage 100 mg/kg): 1/6"
"COc1cc(NS(C)(=O)=O)ccc1Nc1c2cccc(C)c2nc2c1[nH]c1cc(C)ccc12 [Compound 11, 6-(4-methanesulfonamide-2-methoxyanilino)-3,10-dimethylindolo[3,2-b]quinoline]",315%,,,< 0.3 mg/L,315%,294%,cure ([1]; dosage 12.5 mg/kg): 1/6; cure ([1]; dosage 25 mg/kg): 2/6; cure ([1]; dosage 50 mg/kg): 1/6
COc1cc(NS(C)(=O)=O)ccc1Nc1c2ccccc2nc2c1[nH]c1ccc(Cl)cc12 [Compound 12],315%,,,< 0.3 mg/L,231%,242%,cure ([1]; dosage 25 mg/kg): 1/6; cure ([1]; dosage 50 mg/kg): 1/6
"COc1cc(NS(C)(=O)=O)ccc1Nc1c2ccccc2nc2c1[nH]c1ccc(C)cc12 [Compound 13, 6-(4-methanesulfonamide-2-methoxyanilino)-2-methylindolo[3,2-b]quinoline]",115%,,,< 0.3 mg/L,189%,192%,
COC(=O)Nc1ccc(Nc2c3ccccc3nc3c2[nH]c2ccccc23)c(OC)c1 [Compound 14],282%,266%,221%,< 0.3 mg/L,,,cure ([1]; dosage 100 mg/kg): 1/6
COc1cc(NC(C)=O)ccc1Nc1c2ccccc2nc2c1[nH]c1ccccc12 [Compound 15],263%,240%,76%,< 0.3 mg/L,,,cure ([1]; dosage 100 mg/kg): 1/6
"COc1cc(NS(C)(=O)=O)ccc1Nc1c2ccccc2nc2c1[nH]c1cccc(C)c12 [Compound 16, 6-(4-methanesulfonamide-2-methoxyanilino)-1-methylindolo[3,2-b]quinoline]",269%,,,< 0.3 mg/L,240%,288%,cure ([1]; dosage 12.5 mg/kg): 2/6; cure ([1]; dosage 25 mg/kg): 2/6
"COc1cc(NS(C)(=O)=O)ccc1Nc1c2ccccc2nc2c1[nH]c1cc(C)ccc12 [Compound 17, 6-(4-methanesulfoneamide-2-methoxyanilino)-3-methylindolo[3,2-b]quinoline]",75%,,,< 0.3 mg/L,153%,77%,
"COc1cc(NS(C)(=O)=O)ccc1Nc1c2ccccc2nc2c1[nH]c1ccc([N+](=O)[O-])cc12 [Compound 18, 6-(4-methanesulfonamide-2-methoxyanilino)-2-nitroindolo[3,2-b]quinoline]",,,,< 0.3 mg/L,,,cure ([1]; dosage 12.5 mg/kg): 1/6
